According to article PMC2174028 (The Journal of Cell Biology, 2002):

Legend:
[1] = test system: P-selectin; conditions: ref Leppänen et al., 2000; cited from earlier work
[2] = test system: P-selectin; format: binding; conditions: intermediate or high densities of P-selectin, as a function of wall shear stress

Molecule: CC(=O)N[C@H]1[C@H]([C@H](O)[C@H](O)CO)O[C@@](O[C@H]2[C@@H](O)[C@@H](CO)O[C@@H](O[C@@H]([C@H](O[C@@H]3O[C@@H](C)[C@@H](O)[C@@H](O)[C@@H]3O)[C@H](C=O)NC(C)=O)[C@H](O)CO)[C@@H]2O)(C(=O)O)C[C@@H]1O [sLe^x, sialyl Lewis x]
- Affinity for P-selectin (in words) [1]: very low affinity

B1: sPSGL-1: recombinant soluble form of human PSGL-1 comprising the entire extracellular domain, expressed in CHO cells (protein, UniProt Q14242 18-320, looked up)
extracellular domain: LQLWDTWADEAEKALGPLLARDRRQATEYEYLDYDFLPETEPPEMLRNSTDTTPLTGPGTPESTTVEPAARRSTGLDAGGAVTELTTELANMGNLSTDSAAMEIQTTQPAATEAQTTQPVPTEAQTTPLAATEAQTTRLTATEAQTTPLAATEAQTTPPAATEAQTTQPTGLEAQTTAPAAMEAQTTAPAAMEAQTTPPAAMEAQTTQTTAMEAQTTAPEATEAQTTQPTATEAQTTPLAAMEALSTEPSATEALSMEPTTKRGLFIPFSVSSVTHKGIPMAASNLSVNYPVGAPDHISVKQC
modifications: extracellular domain
- Initial tethering of ligand-coupled microspheres to P-selectin (in words) [2]: tethered at identical rates
